In patent publication EP0873990A1, “BENZOIC ACID COMPOUNDS AND MEDICINAL USE THEREOF” (YOSHITOMI PHARMACEUTICAL INDUSTRIES, LTD., priority 1995, dated 1997):
Structures can show the parent of a compound that is named as a salt. Where two headings read alike, the source gives them in different places.

Columns and labels:
5-HT3 receptor = target: T1, 5-HT3 receptor (Rattus norvegicus, UniProt P35563); experiment: 5-HT3 receptor binding test ([3H]Granisetron, crude synapse membrane from cerebral cortex); conditions: for Ki: IC50 converted to Ki, read-out: Affinity for receptor (Ki value, nM) 5-HT3
T1 construct: crude synapse membrane sample was prepared from rat cerebral cortex; from tissue; host or cells: rat cerebral cortex, crude synaptic membranes
T1 sequence (P35563 24-483): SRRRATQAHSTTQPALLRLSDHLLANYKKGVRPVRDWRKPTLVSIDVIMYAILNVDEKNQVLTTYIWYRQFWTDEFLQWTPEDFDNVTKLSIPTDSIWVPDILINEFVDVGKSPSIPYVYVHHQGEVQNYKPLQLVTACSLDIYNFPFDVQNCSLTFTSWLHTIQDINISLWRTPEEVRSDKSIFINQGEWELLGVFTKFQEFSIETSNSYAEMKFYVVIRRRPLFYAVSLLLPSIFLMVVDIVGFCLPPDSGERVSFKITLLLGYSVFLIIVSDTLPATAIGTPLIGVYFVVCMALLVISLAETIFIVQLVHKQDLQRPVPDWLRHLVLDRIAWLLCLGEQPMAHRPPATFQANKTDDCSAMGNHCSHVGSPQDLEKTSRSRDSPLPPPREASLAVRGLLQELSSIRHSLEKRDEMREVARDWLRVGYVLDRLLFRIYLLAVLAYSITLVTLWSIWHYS
Protocol: 148, pp. 297-299 (1988)], a specific 5-HT3 receptor binding test was run using, as a tracer ligand, endo-1-methyl-N-(9-methyl-9-azabicyclo[3.3.1]non-3-yl)-1H-indazole-3-carboxamide substituted by tritium (hereinafter to be referred to as [3H]Granisetron). Specifically, crude synapse membrane sample was prepared from rat cerebral cortex, suspended in 50 mM HEPES buffer (pH 7.4) and used for testing. The test compound having several different concentrations and [3H]Granisetron (final concentration 1.0 nM) were added to this suspension and allowed to react at 25°C. Thirty minutes later, the reaction mixture was filtered by suction with cell harvester. The filter was washed with 50 mM Tris buffer (pH 7.4), and the radioactivity on the filter was counted using liquid scintillation counter or β-plate. The non-specific binding was determined in the presence of 1 µM Tropisetron. The concentration of the test compound necessary for 50% inhibition (IC50) was determined from a graph and converted to a Ki value.

5-HT4 receptor = target: T2, 5-HT4 receptor (Cavia porcellus, UniProt O70528); experiment: biochemical; type: binding, guinea pig
T2 construct: crude synapse membrane sample was prepared from guinea pig striatum; from tissue; host or cells: guinea pig striatum, crude synaptic membranes
T2 sequence (O70528 whole entry): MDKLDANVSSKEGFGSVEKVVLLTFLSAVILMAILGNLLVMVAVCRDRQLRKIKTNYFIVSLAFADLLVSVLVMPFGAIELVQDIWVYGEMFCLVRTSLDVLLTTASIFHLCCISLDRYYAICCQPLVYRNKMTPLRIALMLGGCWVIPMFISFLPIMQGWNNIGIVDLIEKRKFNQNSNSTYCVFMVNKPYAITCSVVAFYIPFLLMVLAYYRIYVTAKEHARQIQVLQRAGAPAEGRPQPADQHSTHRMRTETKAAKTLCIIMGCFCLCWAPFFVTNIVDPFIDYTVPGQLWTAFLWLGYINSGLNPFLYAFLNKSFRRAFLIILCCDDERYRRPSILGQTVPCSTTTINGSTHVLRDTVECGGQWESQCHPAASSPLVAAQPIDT
Protocol: Specifically, crude synapse membrane sample was prepared from guinea pig striatum, suspended in 50 mM HEPES buffer (pH 7.4) and used for testing. The test compound having several different concentrations and [3H]GR113808 (final concentration 0.1 nM) were added to this suspension and allowed to react at 37°C. Thirty minutes later, the reaction mixture was filtered by suction with cell harvester. The filter was washed with 50 mM HEPES buffer, and the radioactivity on the filter was counted by liquid scintillation counter. The non-specific binding was determined in the presence of 1 µM GR113808. The concentration of the test compound necessary for 50% inhibition (IC50) was determined from a graph and converted to a Ki value.

Male Hartley guinea pigs = experiment: Promotion of colonic transit in guinea pig; type: in vivo; conditions: for ratio of colonic transit (%): colon removed one hour later; for promotion (%) of colonic transit: versus vehicle
Protocol: Male Hartley guinea pigs were subjected to laparotomy under ether anesthesia, and a polyethylene tube was inserted into the beginning of colon. The other end was passed under the skin to be exposed from the neck and fixed there. At day 5 postoperation, Evans blue solution was injected into the colon through the polyethylene tube. One hour later, the colon was removed, and the range of the Evans blue solution was measured, which was calculated relative to the entire length of the colon and expressed as transit ratio. The compound of Example 57 was orally administered one hour before injection of the Evans blue solution.

Male ddY mice = experiment: Stimulation of defecation in mouse; type: in vivo; conditions: for promotion (%) of number / promotion (%) of wet weight: 2 hours, versus vehicle; for number (of feces) / wet weight (mg) (of feces): feces excreted for 2 hours after oral administration, n=20
Protocol: Male ddY mice were placed in partition box, and the number and wet weight of feces excreted for 2 hours from immediately after oral administration of the compound of Example 57 were measured.

male Wistar rats = experiment: Promotion of gastric emptying in rats; type: in vivo, rat; conditions: for number of pellets (remaining in stomach): stomach removed one hour later; for promotion (%) of gastric emptying: from comparison with remaining pellets in vehicle group
Protocol: Barium pellets (ca. 1 mm diameter) coated with polystyrene was intragastrically administered to male Wistar rats. One hour later, stomach was removed, and the remaining pellets were counted. The compound of Example 57 was orally administered one hour before administration of the pellets. The promotion ratio was calculated from the comparison with the number of remaining pellets in the group administered with vehicle.

[1] = values marked * are IC50, [3H]Granisetron 1.0 nM, rat cerebral cortex membranes, 25°C, 30 min, read-out: Affinity for receptor 5-HT3 (∗ shows IC50)
[2] = [3H]GR113808 0.1 nM, guinea pig striatum membranes, 37°C, 30 min, IC50 converted to Ki, read-out: Affinity for receptor (Ki value, nM) 5-HT4
[3] = [3H]Granisetron 1.0 nM, rat cerebral cortex membranes, 25°C, 30 min

## COc1cc(N)c(Cl)cc1C(=O)NCC1CCN(CCCCCNCC2CCCCC2)CC1 [Example 11, 4-amino-5-chloro-N-((1-(5-(cyclohexylmethylamino)pentyl)piperidin-4-yl)methyl)-2-methoxybenzamide]
5-HT3 receptor; [1]
  IC50: > 1000 nM
5-HT4 receptor; [2]
  Ki: 0.51 nM

## COc1cc(N)c(Cl)cc1C(=O)NCC1CCN(CCCCCNCc2ccc3ccccc3c2)CC1 [Example 14, 4-amino-5-chloro-2-methoxy-N-((1-(5-(2-naphthylmethylamino)pentyl)piperidin-4-yl)methyl)benzamide]
5-HT3 receptor; [1]
  IC50: > 1000 nM
5-HT4 receptor; [2]
  Ki: 0.97 nM

## CCN(CCCCCN1CCC(CNC(=O)c2cc(Cl)c(N)cc2OC)CC1)Cc1ccc(F)cc1 [Example 25, 4-amino-5-chloro-N-((1-(5-(N-ethyl-N-(4-fluorobenzyl)amino)pentyl)piperidin-4-yl)methyl)-2-methoxybenzamide]
5-HT3 receptor; [1]
  IC50: > 1000 nM
5-HT4 receptor; [2]
  Ki: 0.94 nM

## CCCN(CCCCCN1CCC(CNC(=O)c2cc(Cl)c(N)cc2OC)CC1)Cc1ccccc1 [Example 33, 4-amino-5-chloro-2-methoxy-N-((1-(5-(N-n-propyl-N-benzylamino)pentyl)piperidin-4-yl)methyl)benzamide]
5-HT3 receptor; [1]
  IC50: > 1000 nM
5-HT4 receptor; [2]
  Ki: 0.84 nM

## CCN(CCCCN1CCC(CNC(=O)c2cc(Cl)c(N)cc2OC)CC1)Cc1ccc(Cl)c(Cl)c1 [Example 42, 4-amino-5-chloro-N-((1-(4-(N-(3,4-dichlorobenzyl)-N-ethylamino)butyl)piperidin-4-yl)methyl)-2-methoxybenzamide]
5-HT3 receptor; [1]
  IC50: > 1000 nM
5-HT4 receptor; [2]
  Ki: 0.62 nM

## CCN(CCCCCCN1CCC(CNC(=O)c2cc(Cl)c(N)cc2OC)CC1)Cc1ccccc1 [Example 44, 4-amino-5-chloro-N-((1-(6-(N-ethyl-N-benzylamino)hexyl)piperidin-4-yl)methyl)-2-methoxy benzamide]
5-HT3 receptor; [1]
  IC50: > 1000 nM
5-HT4 receptor; [2]
  Ki: 0.67 nM

## CCN(CCCCCCN1CCC(CNC(=O)c2cc(Cl)c(N)cc2OC)CC1)Cc1ccc([N+](=O)[O-])cc1 [Example 47, 4-amino-5-chloro-N-((1-(6-(N-ethyl-N-(4-nitrobenzyl)amino)hexyl)piperidin-4-yl)methyl)-2-methoxybenzamide]
5-HT3 receptor; [1]
  IC50: > 1000 nM
5-HT4 receptor; [2]
  Ki: 2.7 nM

## COc1cc(N)c(Cl)cc1C(=O)NCC1CCN(CCCCCOCc2ccccc2)CC1 [Example 53, 4-amino-N-((1-(5-benzyloxypentyl)piperidin-4-yl)methyl)-5-chloro-2-methoxybenzamide]
5-HT3 receptor; [3]
  Ki: 370 nM
5-HT4 receptor; [2]
  Ki: 3.5 nM

## COc1cc(N)c(Cl)cc1C(=O)NCC1CCN(CCCCCSCc2ccccc2)CC1 [Example 54, 4-amino-N-((1-(5-benzylthiopentyl)piperidin-4-yl)methyl)-5-chloro-2-methoxybenzamide]
5-HT3 receptor; [3]
  Ki: 340 nM
5-HT4 receptor; [2]
  Ki: 1.6 nM

## COc1cc(N)c(Cl)cc1C(=O)NCC1CCN(CCCCCC(=O)c2ccccc2)CC1 [Example 57, 4-amino-5-chloro-2-methoxy-N-((1-(6-oxo-6-phenylhexyl)piperidin-4-yl)methyl)benzamide]
Male Hartley guinea pigs; 0.1 mg/kg p.o. one hour before Evans blue injection, n=16
  ratio of colonic transit (%): 54.5±8.0%
Male Hartley guinea pigs; 0.1 mg/kg p.o.
  promotion (%) of colonic transit: 23%
Male Hartley guinea pigs; 0.3 mg/kg p.o. one hour before Evans blue injection, n=16
  ratio of colonic transit (%): 54.7±5.9%
Male Hartley guinea pigs; 0.3 mg/kg p.o.
  promotion (%) of colonic transit: 24%
Male Hartley guinea pigs; 1 mg/kg p.o. one hour before Evans blue injection, n=15, P<0.05
  ratio of colonic transit (%): 71.8±6.9 %
Male Hartley guinea pigs; 1 mg/kg p.o.
  promotion (%) of colonic transit: 62%
Male Hartley guinea pigs; 3 mg/kg p.o. one hour before Evans blue injection, n=14, P<0.05
  ratio of colonic transit (%): 73.2±6.3 %
Male Hartley guinea pigs; 3 mg/kg p.o.
  promotion (%) of colonic transit: 66%
5-HT3 receptor; [1]
  IC50: > 1000 nM
5-HT4 receptor; [2]
  Ki: 2.4 nM
Male ddY mice; 0.1 mg/kg p.o.
  promotion (%) of number: 70%
  promotion (%) of wet weight: 69%
  number (of feces): 3.4±0.3
  wet weight (mg) (of feces): 59.2 ± 6.5 mg
Male ddY mice; 0.3 mg/kg p.o.
  promotion (%) of number: 135%
  promotion (%) of wet weight: 136%
Male ddY mice; 0.3 mg/kg p.o., P<0.01
  number (of feces): 4.7±0.5
  wet weight (mg) (of feces): 82.7 ± 11.5 mg
Male ddY mice; 1 mg/kg p.o.
  promotion (%) of number: 130%
  promotion (%) of wet weight: 120%
Male ddY mice; 1 mg/kg p.o., P<0.01
  number (of feces): 4.6±0.6
  wet weight (mg) (of feces): 77.2 ± 11.9 mg
Male ddY mice; 3 mg/kg p.o.
  promotion (%) of number: 135%
  promotion (%) of wet weight: 132%
Male ddY mice; 3 mg/kg p.o., P<0.01
  number (of feces): 4.7±0.5
  wet weight (mg) (of feces): 81.6 ± 10.4 mg
Male Wistar rats; 0.3 mg/kg p.o. one hour before barium pellets
  number of pellets (remaining in stomach): 28.2 ±1.3
Male Wistar rats; 0.3 mg/kg p.o.
  promotion (%) of gastric emptying: 0%
Male Wistar rats; 1 mg/kg p.o. one hour before barium pellets
  number of pellets (remaining in stomach): 24.3 ±2.5
Male Wistar rats; 1 mg/kg p.o.
  promotion (%) of gastric emptying: 14%
Male Wistar rats; 3 mg/kg p.o. one hour before barium pellets, P<0.05
  number of pellets (remaining in stomach): 19.0 ±2.6
Male Wistar rats; 3 mg/kg p.o.
  promotion (%) of gastric emptying: 32%
Male Wistar rats; 10 mg/kg p.o. one hour before barium pellets, P<0.01
  number of pellets (remaining in stomach): 13.3 ±3.0
Male Wistar rats; 10 mg/kg p.o.
  promotion (%) of gastric emptying: 53%

## COc1cc(N)c(Cl)cc1C(=O)NCC1CCN(CCCCCCC(=O)c2ccccc2)CC1 [Example 58, 4-amino-5-chloro-2-methoxy-N-((1-(7-oxo-7-phenylheptyl)piperidin-4-yl)methyl)benzamide]
5-HT3 receptor; [1]
  IC50: > 1000 nM
5-HT4 receptor; [2]
  Ki: 1.5 nM

## COc1ccc(C(=O)CCCCCN2CCC(CNC(=O)c3cc(Cl)c(N)cc3OC)CC2)cc1Cl [Example 73, 4-amino-5-chloro-N-((1-(6-(3-chloro-4-methoxyphenyl)-6-oxohexyl)piperidin-4-yl)methyl)-2-methoxybenzamide]
5-HT3 receptor; [1]
  IC50: > 1000 nM
5-HT4 receptor; [2]
  Ki: 1.8 nM

## COc1ccc(C(=O)CCCCCN2CCC(CNC(=O)c3cc(Cl)c(N)cc3OC)CC2)cc1F [Example 74, 4-amino-5-chloro-N-((1-(6-(3-fluoro-4-methoxyphenyl)-6-oxohexyl)piperidin-4-yl)methyl)-2-methoxybenzamide]
5-HT3 receptor; [1]
  IC50: > 1000 nM
5-HT4 receptor; [2]
  Ki: 5.1 nM

## COc1cc(N)c(Cl)cc1C(=O)NCC1CCN(CCCCCC(=O)c2ccc(O)cc2)CC1 [Example 75, 4-amino-5-chloro-N-((1-(6-(4-hydroxyphenyl)-6-oxohexyl)piperidin-4-yl)methyl)-2-methoxybenzamide]
5-HT3 receptor; [1]
  IC50: > 1000 nM
5-HT4 receptor; [2]
  Ki: 1.5 nM

## COc1cc(N)c(Cl)cc1C(=O)NCC1CCN(CCCCCC(=O)c2cn(C)c3ccccc23)CC1 [Example 77, 4-amino-5-chloro-2-methoxy-N-((1-(6-(1-methyl-1H-indol-3-yl)-6-oxohexyl)piperidin-4-yl)methyl)benzamide]
5-HT3 receptor; [1]
  IC50: > 1000 nM
5-HT4 receptor; [2]
  Ki: 0.34 nM

## COc1cc(N)c(Cl)cc1C(=O)NCC1CCN(CCCCCC(=O)c2cccc3ccccc23)CC1 [Example 81, 4-amino-5-chloro-N-((1-(6-(1-naphthyl)-6-oxohexyl)piperidin-4-yl)methyl)-2-methoxybenzamide hydrochloride]
5-HT3 receptor; [1]
  IC50: > 1000 nM
5-HT4 receptor; [2]
  Ki: 0.5 nM

## COc1cc(N)c(Cl)cc1C(=O)NCC1CCN(CCCCCS(=O)(=O)c2ccccc2)CC1 [Example 84, 4-amino-5-chloro-2-methoxy-N-((1-(5-phenylsulfonylpentyl)piperidin-4-yl)methyl)benzamide hydrochloride]
5-HT3 receptor; [1]
  IC50: > 1000 nM
5-HT4 receptor; [2]
  Ki: 1.4 nM

## CCn1cc(C(=O)CCCCCN2CCC(CNC(=O)c3cc(Cl)c(N)cc3OC)CC2)c2ccccc21 [Example 93, 4-amino-5-chloro-2-methoxy-N-((1-(6-(1-ethyl-1H-indol-3-yl)-6-oxohexyl)piperidin-4-yl)methyl)benzamide]
5-HT3 receptor
  IC50: > 1000 nM
5-HT4 receptor
  Ki: 0.47 nM
